Earlier results in patent publication US11610144B2, “Biosignature discovery for substance use disorder using statistical learning” (BioRealm LLC, priority 2018, dated 2023).
“Also recorded” adds a separate entry of the source.

Columns and labels:
[1] = test system: smokers; conditions: meta-analyses of RCTs
[2] = test system: smokers, slow and normal nicotine metabolizers; conditions: NMR from direct biochemical measurement

| Structure (SMILES) | smoking cessation efficacy compared with placebo [1] | response to treatment, VAR versus NRT [2] |
| --- | --- | --- |
| CC(NC(C)(C)C)C(=O)c1cccc(Cl)c1 (stereo not drawn) [BUP, bupropion] | significantly more effective than placebo |  |
| c1cnc2cc3c(cc2n1)[C@@H]1CNC[C@H]3C1 [VAR, varenicline] | significantly more effective than placebo | responded significantly better than those randomized to NRT; also recorded: responded significantly better to VAR than to NRT |
